What is called IC50 is the concentration that inhibits the measured activity by half.

The text below walks through data of US20100009956A1, “NOVEL SUBSTITUTED PYRIMIDINES AS CYSTEINE PROTEASE INHIBITORS” (Glaxo Group Limited , a corporation, priority 2006, published 2010).

Counter-ions that a name gives are not always drawn. Like-named read-outs stand apart in the source and are kept apart here.

Common to all, as to type: biochemical
One assay deals with Falcipain-2 (Plasmodium falciparum, UniProt Q8I6U4). In words: Falcipain-2 enzymatic assay (assay 1). The procedure:
(§1) Assay 1) Determination of Falcipain-2, Falcipain-3, Vivapain-2, Cathepsin K Cathepsin S, Cathepsin L, and Cathepsin B Proteolytic Catalytic Activity
(§2) Assays for Falcipain-2, Falcipain-3, and Vivapain-2 are carried out with parasitic recombinant enzymes. Cathepsins K, S, L, and B are carried out with human recombinant enzymes. Standard assay conditions for the determination of kinetic constants used a fluorogenic peptide substrate, typically H-D-VLR-AFC (Falcipain-2, Falcipain-3, Vivapain-2), Z-FR-AFC (Cathepsin K, L, B), or KQKLR-AMC (Cathepsin S) and are determined in 100 mM sodium acetate, pH 5.5, containing 10 mM DTT and 0.5 mM CHAPS (Falcipain-2, Falcipain-3, Vivapain-2), and 100 mM sodium acetate, pH 5.5, containing 5 mM L-cysteine, 1 mM CHAPS and 5 mM EDTA (Cathepsin K, L, B), or 50 mM MES, pH 6.5, containing 0.5 mM CHAPS, 10 mM L-CYS, 5 mM EDTA (Cathepsin S). Stock substrate solutions are prepared at 20 mM in DMSO. The activity assays contained 30 uM substrate (Falcipain-2, Falcipain-3, Vivapain-2), 20 uM substrate (Cathepsin K), 25 uM substrate (Cathepsin B), 5 uM substrate (Cathepsin L), and 30 uM substrate (Cathepsin S). All assays contained 1% DMSO. […] All assays are conducted at ambient temperature as end point assays being quenched after 60 minutes with the exception of Cathepsin S at 90 minutes, with 16.6 uM E-64 in 1% DMSO. Product formation (AFC or AMC) is determined from fluorescence (excitation at 405 nm; emission at 530 nm, AFC, or excitation at 360 nm; emission at 460 nm, AMC) monitored with a LJL Aquest (Molecular Devices) fluorescent plate reader. In the case of kinetic reads (used in mechanism of action studies), the reaction is not quenched but is read in the plate reader every 3 minutes for approximately 90 minutes. In addition, the mechanism of action studies for Falcipain-2 utilize Z-LR-AMC as the substrate. Product formation is determined from the fluorescence of AMC, measured with a LJL Acquest (Molecular Devices) fluorescent plate reader (excitation at 360 nm; emission at 460 nm).
(§3) Potential inhibitors are evaluated using the quenched read (endpoint) method. Assays are carried out in the presence of variable concentrations of test compound. Reactions are initiated by addition of enzyme and substrate to wells containing inhibitor stamped in 100% DMSO. For endpoint assays, the reaction is quenched with the addition of E64. Dose response data is fit to an IC50 curve with preset fitting tools according to equation 1:
(§4) y=a+(b−a)/(1+(10^x/10^c)^d) (1)
(§5) where y is the response at a particular inhibitor concentration x, a is the minimum response value, b is the maximum response value, c is the IC50, and d is the slope of the IC50 curve. Assuming the compound is a competitive inhibitor, the apparent KI can be calculated from IC50, as shown in equation 2: […]

A further assay has as its target Falcipain-3 (Plasmodium falciparum, UniProt Q8IIL0). Nature of the assay: Falcipain-3 enzymatic assay (assay 1). How it is done:
as §1, §2, §3, §4, §5

The next assay concerns the target T1, Cathepsin K (Homo sapiens, UniProt P43235).
T1 sequence (P43235 115-329): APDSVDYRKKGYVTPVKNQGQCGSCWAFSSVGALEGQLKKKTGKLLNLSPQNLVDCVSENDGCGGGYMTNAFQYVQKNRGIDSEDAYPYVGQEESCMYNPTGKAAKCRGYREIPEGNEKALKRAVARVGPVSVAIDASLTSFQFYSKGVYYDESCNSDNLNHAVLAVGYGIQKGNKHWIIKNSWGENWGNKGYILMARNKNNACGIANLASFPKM
Nature of the assay: Cathepsin K enzymatic assay (assay 1). Conditions: human recombinant enzyme, Z-FR-AFC substrate, pH 5.5. How it is done:
as §1, §2, §3, §4, §5

Falcipain-2, sequence (Q8I6U4 244-484): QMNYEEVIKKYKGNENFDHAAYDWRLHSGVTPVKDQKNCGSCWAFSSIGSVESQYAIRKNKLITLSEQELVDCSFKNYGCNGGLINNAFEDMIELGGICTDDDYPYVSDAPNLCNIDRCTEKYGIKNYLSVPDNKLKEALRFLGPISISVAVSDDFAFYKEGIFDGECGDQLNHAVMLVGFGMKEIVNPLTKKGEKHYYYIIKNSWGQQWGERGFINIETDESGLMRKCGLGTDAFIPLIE
Falcipain-3, sequence (Q8IIL0 243-492): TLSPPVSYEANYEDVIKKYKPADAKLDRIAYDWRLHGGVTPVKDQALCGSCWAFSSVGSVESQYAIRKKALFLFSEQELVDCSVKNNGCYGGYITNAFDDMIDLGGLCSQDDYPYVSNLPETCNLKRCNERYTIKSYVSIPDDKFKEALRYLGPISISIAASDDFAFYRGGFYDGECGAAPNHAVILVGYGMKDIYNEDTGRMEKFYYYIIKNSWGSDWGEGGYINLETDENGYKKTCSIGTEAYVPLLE

`C[C@@H]1CCC[C@H]1N(NC(=O)c1ccc(F)cc1)c1nc(C#N)ncc1Br` (racemic) [Example 43, N′-(5-bromo-2-cyano-4-pyrimidinyl)-4-fluoro-N′-[(1R,2R+1S,2S))-2-methylcyclopentyl]benzohydrazide trifluoroacetate]: the IC50 on Falcipain-2 is less than 1 nM; against Falcipain-3, 2.5 to 15 nM; on Cathepsin K, less than 17 nM.
Turning to `C[C@H]1CCC[C@H]1N(NC(=O)c1ccc(CN2CCN(C)CC2)cc1)c1nc(C#N)ncc1Br` [Example 2, N′-(5-bromo-2-cyano-4-pyrimidinyl)-N′-[(1 R,2S+1S,2R)-2-methylcyclopentyl]-4-[(4-methyl-1-piperazinyl)methyl]benzohydrazide trifluoroacetate], the IC50 is 1 to 2.5 nM against Falcipain-2, 15 to 150 nM against Falcipain-3 and less than 17 nM on Cathepsin K.
`C[C@@H]1CCC[C@H]1N(NC(=O)c1ccc(CN2CCN(C)CC2)cc1)c1nc(C#N)ncc1Br` [Example 3, N′-(5-bromo-2-cyano-4-pyrimidinyl)-N′-[(1R,2R+1S,2S)-2-methylcyclopentyl]-4-[(4-methyl-1-piperazinyl)methyl]benzohydrazide trifluoroacetate]: the IC50 against Falcipain-2 is less than 1 nM; against Falcipain-3 it was 2.5 to 15 nM; at Cathepsin K, less than 1.5 nM.
Regarding `N#Cc1ncc(Br)c(N(NC(=O)c2ccc(CN3CCC(N4CCOCC4)CC3)cc2)C2CCCC2)n1` [Example 6, N′-(5-bromo-2-cyano-4-pyrimidinyl)-N′-cyclopentyl-4-{([4-(4-morpholinyl)-1-piperidinyl]methyl}benzohydrazide trifluoroacetate], the values for the IC50 against Falcipain-2, at Falcipain-3 and on Cathepsin K were less than 1 nM, 2.5 to 15 nM and less than 1.5 nM, respectively.
Take `CN1CCC(CN2CCN(Cc3ccc(C(=O)NN(c4nc(C#N)ncc4Br)C4CCCC4)cc3)CC2)CC1` [Example 7, N′-(5-bromo-2-cyano-4-pyrimidinyl)-N′-cyclopentyl-4-({4-[(1-methyl-4-piperidinyl)methyl]-1-piperazinyl}methyl)benzohydrazide trifluoroacetate]: the IC50 against Falcipain-2 is less than 1 nM; at Falcipain-3 it was 2.5 to 15 nM; at Cathepsin K, less than 1.5 nM.
As to `CN1CCCC(CN2CCN(Cc3ccc(C(=O)NN(c4nc(C#N)ncc4Br)C4CCCC4)cc3)CC2)C1` (stereo not drawn) [Example 8, N′-(5-bromo-2-cyano-4-pyrimidinyl)-N′-cyclopentyl-4-({4-[(1-methyl-3-piperidinyl)methyl]-1-piperazinyl}methyl)benzohydrazide trifluoroacetate], the IC50 was less than 1 nM against Falcipain-2, 2.5 to 15 nM against Falcipain-3 and less than 1.5 nM on Cathepsin K.
For `CN1CCN(C(=O)C2CCN(Cc3ccc(C(=O)NN(c4nc(C#N)ncc4Br)C4CCCC4)cc3)CC2)CC1` [Example 9, N′-(5-bromo-2-cyano-4-pyrimidinyl)-N′-cyclopentyl-4-({4-[(4-methyl-1-piperazinyl)carbonyl]-1-piperidinyl}methyl)benzohydrazide trifluoroacetate], the IC50 against Falcipain-2 was less than 1 nM; against Falcipain-3, 2.5 to 15 nM; on Cathepsin K, less than 1.5 nM.
For `CN1CCN(C2CCN(Cc3ccc(C(=O)NN(c4nc(C#N)ncc4Br)C4CCCC4)cc3)CC2)CC1` [Example 10, N′-(5-bromo-2-cyano-4-pyrimidinyl)-N′-cyclopentyl-4-{[4-(4-methyl-1-piperazinyl)-1-piperidinyl]methyl}benzohydrazide trifluoroacetate], the figures for the IC50 at Falcipain-2, on Falcipain-3 and at Cathepsin K were less than 1 nM, 2.5 to 15 nM and less than 1.5 nM, respectively.
Take `CN1CCN(C2CCN(Cc3cccc(C(=O)NN(c4nc(C#N)ncc4Br)C4CCCC4)c3)CC2)CC1` [Example 11, N′-(5-bromo-2-cyano-4-pyrimidinyl)-N′-cyclopentyl-3-{[4-(4-methyl-1-piperazinyl)-1-piperidinyl]methyl}benzohydrazide trifluoroacetate]: the IC50 was less than 1 nM on Falcipain-2, 2.5 to 15 nM against Falcipain-3 and less than 1.5 nM at Cathepsin K.
`CN1CCN(C(=O)C2CCN(Cc3cccc(C(=O)NN(c4nc(C#N)ncc4Br)C4CCCC4)c3)CC2)CC1` [Example 12, N′-(5-bromo-2-cyano-4-pyrimidinyl)-N′-cyclopentyl-3-({4-[(4-methyl-1-piperazinyl)carbonyl]-1-piperidinyl}methyl)benzohydrazide trifluoroacetate]: the IC50 was less than 1 nM at Falcipain-2, 2.5 to 15 nM against Falcipain-3 and less than 1.5 nM at Cathepsin K.
On to `CN1CCCC(CN2CCN(Cc3cccc(C(=O)NN(c4nc(C#N)ncc4Br)C4CCCC4)c3)CC2)C1` (stereo not drawn) [Example 14, N′-(5-bromo-2-cyano-4-pyrimidinyl)-N′-cyclopentyl-3-({4-[(1-methyl-3-piperidinyl)methyl]-1-piperazinyl}methyl)benzohydrazide trifluoroacetate], for which the IC50 is less than 1 nM on Falcipain-2, 2.5 to 15 nM against Falcipain-3 and less than 1.5 nM on Cathepsin K.
As for `CN1CCC(CN2CCN(Cc3cccc(C(=O)NN(c4nc(C#N)ncc4Br)C4CCCC4)c3)CC2)CC1` [Example 15, N′-(5-bromo-2-cyano-4-pyrimidinyl)-N′-cyclopentyl-3-({4-[(1-methyl-4-piperidinyl)methyl]-1-piperazinyl}methyl)benzohydrazide trifluoroacetate], the IC50 at Falcipain-2 is less than 1 nM; at Falcipain-3 (parasitic recombinant enzyme, H-D-VLR-AFC substrate, pH 5.5, endpoint read, read-out: Falcipain-3 IC50) it was 2.5 to 15 nM; at Cathepsin K it was less than 1.5 nM.
Turning to `N#Cc1ncc(Br)c(N(NC(=O)c2ccc(CN3CCC(N4CCOCC4)CC3)cc2)C2CCCCC2)n1` [Example 18, N′-(5-bromo-2-cyano-4-pyrimidinyl)-N′-cyclohexyl-4-{([4-(4-morpholinyl)-1-piperidinyl]methyl}benzohydrazide trifluoroacetate], the IC50 is less than 1 nM against Falcipain-2, 2.5 to 15 nM against Falcipain-3 and less than 1.5 nM on Cathepsin K.
In the same order, the values of `CN1CCC(CN2CCN(Cc3ccc(C(=O)NN(c4nc(C#N)ncc4Br)C4CCCCC4)cc3)CC2)CC1` [Example 19, N′-(5-bromo-2-cyano-4-pyrimidinyl)-N′-cyclohexyl-4-({4-[(-methyl-4-piperidinyl)methyl]-1-piperazinyl}methyl)benzohydrazide trifluoroacetate] are less than 1 nM, 2.5 to 15 nM and less than 1.5 nM.
Turning to `CC(C)N(Cc1ccc(C(=O)NN(c2nc(C#N)ncc2Cl)C2CCCC2)cc1)C1CCCCC1` [Example 75, N′-(5-chloro-2-cyano-4-pyrimidinyl)-4-{[cyclohexyl(1-methylethyl)amino]methyl}-N′-cyclopentylbenzohydrazide trifluoroacetate], the 50% inhibitory concentration (IC50) against Falcipain-2 was less than 1 nM; at Falcipain-3 it was 2.5 to 15 nM.
Turning to `CN(Cc1ccc(C(=O)NN(c2nc(C#N)ncc2Cl)C2CCCC2)cc1)CC(O)CO` (stereo not drawn) [Example 76, N′-(5-chloro-2-cyano-4-pyrimidinyl)-N′-cyclopentyl-4-{[(2,3-dihydroxypropyl)(methyl)amino]methyl}benzohydrazide trifluoroacetate], the values for the IC50 against Falcipain-2 and against Falcipain-3 were less than 1 nM and 2.5 to 15 nM, respectively.
Take `CN1CCN(c2cccc(C(=O)NN(c3nc(C#N)ncc3Cl)C3CCCC3)n2)CC1` [Example 78, N′-(5-chloro-2-cyano-4-pyrimidinyl)-N′-cyclopentyl-6-(4-methyl-1-piperazinyl)-2-pyridinecarbohydrazide trifluoroacetate]: the IC50 is less than 1 nM against Falcipain-2 and 15 to 150 nM against Falcipain-3.
